Usually inhibition stands for the change of the read-out against control, counted positive when it falls. Lower therefore signals a weak effect. In general, IC50 refers to the point on the concentration scale where inhibition reaches its midpoint.

One experiment has as its target c-KIT (Homo sapiens (Human), UniProt P10721). Kind of experiment: Luminescence-based c-KIT kinase assay (Km ATP), ADP-Glo. The class given is biochemical. To be noted: compound at 100 nM concentration. As to the method: Kinase activity of c-KIT was measured using the ADP-Glo system (Promega). Compounds were diluted in DMSO at 100 μM. 20 nL of compound or DMSO only (high control, HC) were added to a 384-well plate (OptiPlate-384, PerkinElmer) using an Echo550 liquid handler (Labcyte). 15 μL of kinase solution (10 mM MgCl2, 0.01% Brij-35, 2 mM DTT, 0.05% BSA, 1 mM EGTA, 50 mM HEPES pH 7.5, and 13.3 nM c-KIT [Carna Biosciences]) were added to each well of the 384-well plate containing the compounds. No enzyme control wells were included (low control, LC). The plate was incubated at room temperature for 30 minutes. 5 μL of a second solution containing 10 mM MgCl2, 0.01% Brij-35, 2 mM DTT, 0.05% BSA, 1 mM EGTA, 50 mM HEPES pH 7.5, 0.8 μg/ml Poly(Glu-Tyr) (Sigma, Cat No 97105-00-5), and 400 μM ATP were added to each well to start the kinase reaction. The plate was incubated for 90 minutes at room temperature. 20 μL of ADP-Glo reagent (Promega) were then added to each well and the plate was incubated for 40 minutes at room temperature. […] During this step, ADP was converted to ATP, a substrate for luciferase, to produce luminescence signal. Luminescence was measured on an Envision plate reader (Perkin Elmer). Luminescence signal positively correlates with kinase activity. The percent inhibition of kinase activity was calculated as follows: percent inhibition=100×(LumHC−LumSample)/(LumHC−LumLC). […]
(In ADP-Glo the light output rises with the ADP produced.)

For another experiment, the target named is ABL1 (Y253H) (Homo sapiens (Human), UniProt P00519, Y253H). Description: Radioactivity-based ABL kinase assay. The class given is biochemical. To be noted: 100 μM 33P-ATP. As to the method: (§1) The following kinase assay was based on Anastassiadis et al (2011) Nat Biotech, 29:1039-1045. Briefly, ABL kinase substrate (ABLtide: EAIYAAPFAKKK; Genscript) was freshly prepared in reaction buffer (20 mM HEPES pH 7.5, 10 mM MgCl2, 1 mM EGTA, 0.02% Brij-35, 0.02 mg/ml BSA, 0.1 mM Na3VO4, 2 mM DTT, and 1% DMSO) to a final substrate concentration of 20 μM. ABL wild type and ABL mutant kinases were added to the substrate solution and mixed to the final enzyme concentrations shown in Table 3 below.
(§2) Serial dilutions of compounds were prepared in 100% DMSO Compounds or DMSO only (vehicle control) were then added to the kinase reaction mixture and incubated for 20 minutes at room temperature. 100 μM ^33P-ATP (specific activity 10 μCi/μl) was then added to the kinase reaction mixture to initiate the kinase reaction. This mixture was incubated for 2 hours at room temperature. Radioactivity was then measured by radioisotope filter-binding. Kinase activity data were expressed as the percent remaining kinase activity in test samples compared to vehicle control reactions. IC50 values and curve fits were obtained using a nonlinear regression model with a sigmoidal dose response (Prism GraphPad Software).

In the next experiment the target is ABL1 (E255K) (Homo sapiens (Human), UniProt P00519, E255K). Description: Radioactivity-based ABL kinase assay. The class given is biochemical. To be noted: 100 μM 33P-ATP. As for the experimental part:
as §1, §2

The target in the next experiment is ABL1 (E255V) (Homo sapiens (Human), UniProt P00519, E255V). Kind of experiment: Radioactivity-based ABL kinase assay. The class given is biochemical. The conditions noted are these: 100 μM 33P-ATP. As to the method: as §1, §2
The target of the next experiment is ABL1 (H396P) (Homo sapiens (Human), UniProt P00519, H396P). Kind of experiment: Radioactivity-based ABL kinase assay. The class given is biochemical. The conditions noted are these: 100 μM 33P-ATP. As to the method:
as §1, §2

Another experiment addresses ABL1 (Q252H) (Homo sapiens (Human), UniProt P00519, Q252H). Kind of experiment: Radioactivity-based ABL kinase assay. The class given is biochemical. The conditions noted are these: 100 μM 33P-ATP. As for the experimental part: as §1, §2
The target in another experiment is ABL1 (V299L) (Homo sapiens (Human), UniProt P00519, V299L). Kind of experiment: Radioactivity-based ABL kinase assay. To be noted: 100 μM 33P-ATP. The class given is biochemical. As for the experimental part:
as §1, §2

A further experiment has as its target ABL1 (G250E) (Homo sapiens (Human), UniProt P00519, G250E). Description: Radioactivity-based ABL kinase assay. The class given is biochemical. The conditions noted are these: 100 μM 33P-ATP. As for the experimental part:
as §1, §2

Another experiment addresses ABL1 (Homo sapiens (Human), UniProt P00519). Description: Radioactivity-based ABL kinase assay. The class given is biochemical. The conditions noted are these: 100 μM 33P-ATP. As to the method:
as §1, §2

Another experiment concerns the target ABL1 (T315I) (Homo sapiens (Human), UniProt P00519, T315I). Kind of experiment: Radioactivity-based ABL kinase assay. The class given is biochemical. The conditions noted are these: 100 μM 33P-ATP. As for the experimental part: as §1, §2
In the next experiment the target is ABL1 (Y253F) (Homo sapiens (Human), UniProt P00519, Y253F). Description: Radioactivity-based ABL kinase assay. To be noted: 100 μM 33P-ATP. The class given is biochemical. As to the method: as §1, §2
A further experiment addresses ABL1 (F317I) (Homo sapiens (Human), UniProt P00519, F317I). Kind of experiment: Radioactivity-based ABL kinase assay. The class given is biochemical. To be noted: 100 μM 33P-ATP. As to the method:
as §1, §2

For a further experiment, the target named is ABL1 (M351T) (Homo sapiens (Human), UniProt P00519, M351T). Kind of experiment: Radioactivity-based ABL kinase assay. The class given is biochemical. To be noted: 100 μM 33P-ATP. As to the method:
as §1, §2

For the next experiment, the target named is ABL1 (F317L) (Homo sapiens (Human), UniProt P00519, F317L). Description: Radioactivity-based ABL kinase assay. The class given is biochemical. To be noted: 100 μM 33P-ATP. As for the experimental part:
as §1, §2

For a further experiment, the system named is K562 cells. Description: K562 cell proliferation assay (CellTiter-Glo). The class given is cell-based. To be noted: Homo sapiens; K562 cell line, 72 hours, cell viability. As to the method: K562 cells, cultured in Iscove's Modified Dulbecco's Media (IMDM) supplemented with 10% FBS, were harvested at 50-80% confluency and plated at 2,000 cells per well in 384-well tissue culture plates. A subset of wells contained media only (low control, LC). Compounds were serially diluted in DMSO. 40 nL of compound or DMSO only (high control, HC) were added to each well using an Echo 550 liquid handler (Labcyte). The plates were placed in a 37° C. incubator with 5% CO2 for 72 hours. Cell viability was measured using a CellTiter-Glo luminescent cell viability assay (Promega), which allows for relative quantification of metabolically active cells by luminescence-based measurements of intracellular ATP concentrations. Briefly, plates were removed from the incubator and equilibrated for 15 minutes at room temperature prior to the addition of 40 μL of CellTiter-Glo reagent. Plates were then incubated for 30 minutes at room temperature. Luminescence was measured using an EnSpire plate reader (Perkin Elmer). As noted above, luminescence values from wells with DMSO only or media without cells were used as high and low controls (HC and LC), respectively. Normalized percent viability was calculated as follows: percent viability=100×(LumSample−LumLC)/(LumHC−LumLC). IC50 values were calculated using the XLFit software.

Chain of c-KIT (P10721 26-976): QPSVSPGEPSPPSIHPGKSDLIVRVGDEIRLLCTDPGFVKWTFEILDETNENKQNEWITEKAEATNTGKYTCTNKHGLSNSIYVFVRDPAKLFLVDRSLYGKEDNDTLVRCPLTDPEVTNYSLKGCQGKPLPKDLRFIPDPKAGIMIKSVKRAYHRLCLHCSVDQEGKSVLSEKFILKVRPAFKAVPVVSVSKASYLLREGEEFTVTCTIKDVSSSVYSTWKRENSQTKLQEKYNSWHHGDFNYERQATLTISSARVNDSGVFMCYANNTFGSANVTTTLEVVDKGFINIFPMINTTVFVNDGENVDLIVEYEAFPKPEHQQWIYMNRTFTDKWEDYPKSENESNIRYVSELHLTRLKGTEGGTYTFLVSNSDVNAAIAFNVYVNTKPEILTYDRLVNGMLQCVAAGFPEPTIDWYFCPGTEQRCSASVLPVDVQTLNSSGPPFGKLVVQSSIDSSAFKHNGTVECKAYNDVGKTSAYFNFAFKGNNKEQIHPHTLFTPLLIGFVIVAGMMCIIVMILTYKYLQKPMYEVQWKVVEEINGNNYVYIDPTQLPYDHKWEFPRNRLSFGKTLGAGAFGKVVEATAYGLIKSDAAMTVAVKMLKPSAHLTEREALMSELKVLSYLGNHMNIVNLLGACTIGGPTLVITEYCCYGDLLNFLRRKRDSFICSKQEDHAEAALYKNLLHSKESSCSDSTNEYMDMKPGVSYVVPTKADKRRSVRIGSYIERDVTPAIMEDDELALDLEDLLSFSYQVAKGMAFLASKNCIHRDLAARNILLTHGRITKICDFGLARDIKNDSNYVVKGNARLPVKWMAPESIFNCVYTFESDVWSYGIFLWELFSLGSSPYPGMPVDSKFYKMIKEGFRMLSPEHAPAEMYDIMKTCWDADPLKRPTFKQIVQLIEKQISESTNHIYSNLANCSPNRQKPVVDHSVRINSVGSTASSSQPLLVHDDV

Regarding `Cc1c(F)cncc1-c1cc2cnc(NC(=O)C3CC3)cc2n(C)c1=O` [Compound 2, N-[3-(5-fluoro-4-methylpyridin-3-yl)-1-methyl-2-oxo-1,6-naphthyridin-7-yl]cyclopropanecarboxamide], the inhibition at 0.1 µM against c-KIT is 17%. Also, the IC50 was 0.93 nM at ABL1 (Y253H); 2 nM on ABL1 (E255K); 0.61 nM on ABL1 (E255V); 1.2 nM on ABL1 (H396P); 1.2 nM at ABL1 (Q252H); less than 0.51 nM on ABL1 (V299L). Further, the IC50 on ABL1 (G250E) is 1.5 nM; at ABL1, 0.61 nM; on ABL1 (T315I), 4400 nM; on ABL1 (Y253F), less than 0.51 nM; on ABL1 (F317I), 47 nM; on ABL1 (M351T), 1.5 nM. The IC50 on ABL1 (F317L) came out at 17 nM; in the experiment with K562 cells it was 28 nM.

`Cc1c(F)cncc1-c1cc2cnc(NC(=O)[C@@H]3C[C@@H]3F)cc2n(C)c1=O` [Compound 28, (1S,2S)-2-fluoro-N-[3-(5-fluoro-4-methylpyridin-3-yl)-1-methyl-2-oxo-1,6-naphthyridin-7-yl]cyclopropane-1-carboxamide]: 0.1 µM produced 7.3% inhibition against c-KIT. Besides, the IC50 at ABL1 (Y253H) stood at 3.6 nM; on ABL1 (E255K), 3.4 nM; on ABL1 (E255V), 1.4 nM; on ABL1 (H396P) it was 1.4 nM; at ABL1 (Q252H) it was 1.7 nM; on ABL1 (V299L), 0.19 nM. For the same compound, the IC50 was 3.7 nM on ABL1 (G250E); 1.2 nM on ABL1; more than 500 nM on ABL1 (T315I); 0.53 nM at ABL1 (Y253F); 114 nM at ABL1 (F317I); 4.5 nM on ABL1 (M351T). Further, the figures for the IC50 at ABL1 (F317L) and in the experiment with K562 cells were 107 nM and 47 nM, respectively.

The values above are taken from patent publication US20240287062A1, “NAPHTHYRIDONE COMPOUNDS FOR INHIBITION OF RAF KINASES AND/OR BCR-ABL TYROSINE KINASES” (Enliven Inc., priority 2021, published 2024).
